Earlier results, collected in publication PMC4946565 (Bioorganic & medicinal chemistry letters, 2016).

System: VMAT2
Conditions: selectivity VMAT2 over DAT; ref [4], [9], [10]

CN1[C@@H](CC(=O)c2ccccc2)CCC[C@H]1C[C@H](O)c1ccccc1 [Lobeline, lobeline]
fold higher affinity for VMAT2 compared to DAT: about 100 fold
